# Test results reported in patent US11571418B2, “Platinum compounds that inhibit constitutive STAT3 signaling and induce cell cycle arrest and apoptosis of malignant cells” (H. LEE MOFFITT CANCER CENTER AND RESEARCH INSTITUTE, INC., priority 2011, dated 2023).
# Key:
# Assay in all cases: TUNEL analysis of apoptosis
# Format in all cases: cell-based, human
# A549 = settings: 48 h
# Excerpt: (§1) FIGS. 7A-7C. TUNEL analysis of PLATINUM-401-mediated apoptosis. (FIG. 7A) Normal NIH3T3 fibroblasts and their v-Src-transformed counterparts (NIH3T3/v-Src), human breast carcinoma cell lines (MDA-MB-453, MDA-MB-435, MDA-MB-468, and MDA-MB-231), human non-small cell lung cancer cell line (A549), human prostate cancer cell line (DU145), multiple myeloma 5TGM1 (mouse) and U266 (human) cell lines, mouse melanoma cell line (B16) and human pancreatic cancer cell line (Panc1) were all treated with or without PLATINUM-401 for 48 h and analyzed by TUNEL for DNA damage. For each cell line, the activated Stat3 status is indicated as (−), no constitutively-active Stat3 and (+), constitutively-active Stat3 (see FIG. 5A). Data are representative of 3 independent determinations; (FIG. 7B) Human breast cancer cell lines (MDA-MB-453, MDA-MB-468 and MDA-MB-435) were transfected with or without Stat3β or Stat3 antisense (Stat3AS), or were treated with or without Stat3 peptidomimetic inhibitor, ISS 610 (1 mM) or PLATINUM-401 (5 μM)). Forty-eight hours afterwards, cells were harvested and processed for TUNEL analysis; (FIG. 7C) The viral Src-transformed NIH3T3/v-Src fibroblasts were transfected with or without wild-type Stat3 (pRc/CMV Stat3 Flag) and treated with or without 5 μM PLATINUM-401 for 36 h. Cells were subsequently harvested for nuclear extracts preparation and Stat3 DNA-binding assay in vitro with EMSA analysis (left panel), or were processed for TUNEL analysis (right panel).
# (§2) Cell proliferation and TUNEL assays—Proliferating cells were first treated with or without PLATINUM-401 for up to 48 h. A portion of cells were harvested for BrdU incorporation following the manufacturer's (BD Biosciences Pharmingen, San Diego, Calif.) instructions and analyzed by flow cytometry. Harvested cells were also analyzed for apoptosis via detection of TdT-mediated dUTP nick-end labeling (TUNEL) assay using Apoptosis Detection Systems Fluorescein according to the manufacturer's (Roche, Indianapolis, Ind.) instructions. Oligonucleotides and plasmids Transfections. The Stat3 antisense (5′-[…]-3′) (SEQ ID NO:3) or control mismatch oligonucleotides (5′-[…]-3′) (SEQ ID NO:4) were synthesized using phosphorothioate chemistry and were synthesized with 2′-Omethoxyethyl modification of the five terminal nucleotides (underlined; (Mora et al., 2002; Karras et al., 2000)) to increase stability. Transfections of Stat3AS and plasmids were carried out with Lipofectamine 2000 (LF) according to the manufacturer's instructions (Invitrogen, Carlsbad, Calif.). Briefly, cells were seeded at 1-2×10^6 cells/10-cm tissue-culture plates 18 h before transfection. Immediately before transfection, cells were washed once with PBS. Cells were transfected with luciferase reporters (4 μg) in the presence or absence of v-Src (4 μg), or were transfected with Stat3β (4 μg) or pRC/CMV Stat3 Flag (4 μg). Stat3AS transfections were carried out LF alone, or with LF/Stat3 antisense oligonucleotides, or LF/Stat3 mismatch oligonucleotides (final concentration of the oligonucleotides was 250 nM). After 2-3 h, the transfection medium was aspirated and cells washed with PBS before fresh medium added containing 10% FBS was added.
# (§3) Cells were analyzed for DNA-strand breaks by TUNEL staining. […] The incidence of apoptosis correlated with the prevalence of constitutively-active Stat3 in malignant cells (FIG. 7, lower panel). Moreover, the incidence of apoptosis by PLATINUM-401 in breast cancer cell lines (MDA-MB-468 and MDA-MB-435) harboring constitutively-active Stat3 compares favorably to that induced by other previously investigated Stat3 inhibitory approaches, such as Stat3β (Garcia et al., 2001), Stat3 antisense (Stat3AS) (Mora et al., 2002), peptidomimetic inhibitor of Stat3 (ISS 610) (FIG. 7B) (Turkson et al., 2004c), and contrasts with the absence of apoptosis in breast cancer cell line, MDA-MB-453 that lacks constitutively-active Stat3. […]
# DU145 = settings: 48 h
# Excerpt: as §1, §2, §3
# MDA-MB-435 = settings: 48 h
# Excerpt: as §1, §2, §3
# MDA-MB-453 = settings: 48 h, no aberrant Stat3 activity
# Excerpt: as §1, §2, §3
# MDA-MB-468 = settings: 48 h
# Excerpt: as §1, §2, §3
# MDA-MD-231 = settings: 48 h
# Excerpt: as §1, §2, §3
# Panc1 = settings: 48 h
# Excerpt: as §1, §2, §3
# U266 = settings: 48 h
# Excerpt: as §1, §2, §3
smiles,measurement,setting,value
CC(O)CN1CCN(CC(C)O)CC1 (centres unmarked) [PLATINUM-401],TUNEL staining,A549,Significant TUNEL staining
same,TUNEL staining,DU145,Significant TUNEL staining
same,TUNEL staining,MDA-MB-435,Significant TUNEL staining
same,TUNEL staining,MDA-MB-453,no TUNEL staining
same,TUNEL staining,MDA-MB-468,Significant TUNEL staining
same,TUNEL staining,MDA-MD-231,Significant TUNEL staining
same,TUNEL staining,Panc1,Significant TUNEL staining
same,TUNEL staining,U266,Significant TUNEL staining
